{
  "source": "ChEMBL document CHEMBL5696439",
  "about": "(Cancer Res, 2010)",
  "key": {"[1]": {"biological_target": "Tyrosine-protein kinase Srms (Homo sapiens) (UniProt Q9H3Y6)", "sequence (Q9H3Y6 whole entry)": "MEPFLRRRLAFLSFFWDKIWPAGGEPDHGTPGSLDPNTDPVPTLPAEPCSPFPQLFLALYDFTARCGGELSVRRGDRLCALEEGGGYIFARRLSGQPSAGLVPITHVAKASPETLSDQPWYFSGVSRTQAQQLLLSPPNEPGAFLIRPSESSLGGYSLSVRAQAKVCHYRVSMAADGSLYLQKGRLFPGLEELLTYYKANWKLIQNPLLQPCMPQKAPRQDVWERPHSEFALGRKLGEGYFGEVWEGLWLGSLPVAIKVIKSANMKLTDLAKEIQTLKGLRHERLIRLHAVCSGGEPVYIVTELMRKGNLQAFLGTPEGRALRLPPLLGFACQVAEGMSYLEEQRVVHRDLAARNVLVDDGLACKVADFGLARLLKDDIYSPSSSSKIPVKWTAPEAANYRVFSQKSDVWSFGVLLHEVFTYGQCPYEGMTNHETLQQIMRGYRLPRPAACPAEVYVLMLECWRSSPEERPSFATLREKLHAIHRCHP", "assay": "Inhibition of recombinant human full length GST-tagged SRMS expressed in insect cells at 2 uM using Tyr 01 as substrate measured after 1 hr by Z'-LYTE assay relative to control", "settings": "Insect cell"}, "Rat1": {"system": "Rat1", "assay": "Inhibition of mTORC2 in rat Rat1 cells assessed as AKT phosphorylation at S473 level preincubated for 1 hrs in the presence of IGF-1 stimulation by immunoblot assay", "format": "cell-based", "settings": "dose 0.01-2 µmol/L"}, "[2]": {"biological_target": "Serine/threonine-protein kinase B-raf (Homo sapiens) (UniProt P15056)", "assay": "Inhibition of recombinant human full-length GST tagged BRAF expressed in insect cells at 2 uM using Ser/Thr 03 as substrate measured after 1 hr by Z'-LYTE assay relative to control", "settings": "Insect cell"}, "A549": {"system": "A549", "assay": "Antitumor activity against human A549 cells xenografted in female nude mouse model assessed as suppression in tumor growth at 10 mg/kg, po qd administered as 5 days on/2 days off regimen for 4 cycles", "format": "functional, organism-based", "settings": "time 28.0 day"}, "[3]": {"biological_target": "ALK tyrosine kinase receptor (Homo sapiens) (UniProt Q9UM73)", "sequence (Q9UM73 19-1620 limits assumed)": "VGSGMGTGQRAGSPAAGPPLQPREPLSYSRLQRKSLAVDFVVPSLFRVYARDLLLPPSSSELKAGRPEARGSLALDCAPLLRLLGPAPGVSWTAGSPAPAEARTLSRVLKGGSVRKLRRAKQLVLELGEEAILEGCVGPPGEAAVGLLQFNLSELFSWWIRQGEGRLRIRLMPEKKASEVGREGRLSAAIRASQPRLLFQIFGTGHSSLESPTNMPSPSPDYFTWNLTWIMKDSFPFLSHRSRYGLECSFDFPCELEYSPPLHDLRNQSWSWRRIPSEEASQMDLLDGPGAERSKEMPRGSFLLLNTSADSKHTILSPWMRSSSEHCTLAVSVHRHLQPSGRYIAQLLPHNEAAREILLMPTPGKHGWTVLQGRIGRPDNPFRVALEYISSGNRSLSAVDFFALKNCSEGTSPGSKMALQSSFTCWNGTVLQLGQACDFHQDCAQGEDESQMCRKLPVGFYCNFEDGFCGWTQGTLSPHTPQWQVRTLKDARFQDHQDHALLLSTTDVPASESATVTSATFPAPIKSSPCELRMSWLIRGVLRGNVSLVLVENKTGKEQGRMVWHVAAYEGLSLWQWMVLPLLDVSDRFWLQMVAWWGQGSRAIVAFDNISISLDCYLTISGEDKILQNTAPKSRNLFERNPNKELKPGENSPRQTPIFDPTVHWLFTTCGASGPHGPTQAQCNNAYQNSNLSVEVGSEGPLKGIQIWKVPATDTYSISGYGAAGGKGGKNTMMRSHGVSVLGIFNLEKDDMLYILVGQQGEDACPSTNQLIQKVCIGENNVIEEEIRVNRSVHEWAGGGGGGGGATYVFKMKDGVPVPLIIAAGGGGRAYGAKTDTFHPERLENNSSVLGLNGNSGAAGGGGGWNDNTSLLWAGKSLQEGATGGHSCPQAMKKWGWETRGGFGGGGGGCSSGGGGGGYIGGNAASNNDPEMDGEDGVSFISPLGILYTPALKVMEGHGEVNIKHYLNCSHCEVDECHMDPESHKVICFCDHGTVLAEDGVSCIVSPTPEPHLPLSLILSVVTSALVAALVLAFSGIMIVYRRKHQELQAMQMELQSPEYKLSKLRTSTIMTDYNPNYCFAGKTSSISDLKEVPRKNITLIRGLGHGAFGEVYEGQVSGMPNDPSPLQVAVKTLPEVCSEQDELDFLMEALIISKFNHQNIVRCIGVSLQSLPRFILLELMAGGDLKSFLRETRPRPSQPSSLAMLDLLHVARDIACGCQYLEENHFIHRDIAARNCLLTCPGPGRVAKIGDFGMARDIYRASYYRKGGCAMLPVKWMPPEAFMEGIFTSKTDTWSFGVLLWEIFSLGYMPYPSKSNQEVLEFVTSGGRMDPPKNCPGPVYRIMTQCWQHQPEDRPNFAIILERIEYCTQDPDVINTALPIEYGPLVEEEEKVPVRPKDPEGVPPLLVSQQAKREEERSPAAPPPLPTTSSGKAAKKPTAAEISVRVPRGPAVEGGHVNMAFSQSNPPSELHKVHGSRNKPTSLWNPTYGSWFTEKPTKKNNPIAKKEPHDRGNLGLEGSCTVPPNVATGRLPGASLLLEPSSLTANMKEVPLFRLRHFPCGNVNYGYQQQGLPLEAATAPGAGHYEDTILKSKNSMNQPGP", "assay": "Inhibition of recombinant human GST-tagged ALK (1058 to 1620 residues) expressed in insect cells at 2 uM using Tyr 01 as substrate measured after 1 hr by Z'-LYTE assay relative to control", "settings": "Insect cell"}, "[4]": {"biological_target": "G protein-coupled receptor kinase 6 (Homo sapiens) (UniProt P43250)", "assay": "Inhibition of recombinant human full-length GST-tagged GRK6 expressed in insect cells at 2 uM using Ser/Thr 16 as substrate measured after 1 hr by Z'-LYTE assay relative to control", "settings": "Insect cell"}, "[5]": {"biological_target": "Tyrosine-protein kinase Mer (Homo sapiens) (UniProt Q12866)", "assay": "Inhibition of recombinant human GST-tagged MERTK (578-872 residues) expressed in insect cells at 2 uM using Tyr 02 as substrate measured after 1 hr by Z'-LYTE assay relative to control", "settings": "Insect cell"}, "[6]": {"biological_target": "Fibroblast growth factor receptor 4 (Homo sapiens) (UniProt P22455)", "assay": "Inhibition of recombinant human His-tagged FGFR4 ([…] residues) expressed in insect cells at 2 uM using Tyr 04 as substrate measured after 1 hr by Z'-LYTE assay relative to control", "settings": "Insect cell"}, "[7]": {"biological_target": "Serine/threonine-protein kinase 4 (Homo sapiens) (UniProt Q13043)", "sequence (Q13043 whole entry)": "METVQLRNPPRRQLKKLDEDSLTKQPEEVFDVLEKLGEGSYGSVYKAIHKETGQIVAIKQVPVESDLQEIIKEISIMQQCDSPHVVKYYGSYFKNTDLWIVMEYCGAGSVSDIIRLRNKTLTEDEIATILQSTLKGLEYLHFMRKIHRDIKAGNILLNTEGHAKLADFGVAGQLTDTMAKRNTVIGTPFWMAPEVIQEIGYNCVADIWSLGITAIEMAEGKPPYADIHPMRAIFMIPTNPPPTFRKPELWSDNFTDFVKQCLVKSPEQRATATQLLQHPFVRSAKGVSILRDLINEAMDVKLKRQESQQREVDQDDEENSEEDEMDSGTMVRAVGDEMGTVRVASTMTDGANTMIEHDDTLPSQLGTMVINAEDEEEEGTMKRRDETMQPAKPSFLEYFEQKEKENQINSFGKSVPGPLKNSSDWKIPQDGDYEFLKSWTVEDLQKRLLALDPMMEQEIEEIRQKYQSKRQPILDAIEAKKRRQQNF", "assay": "Inhibition of recombinant human full length GST-tagged STK4 expressed in insect cells at 2 uM using Ser/Thr 07 as substrate measured after 1 hr by Z'-LYTE assay relative to control", "settings": "Insect cell"}, "[8]": {"biological_target": "Protein kinase C delta type (Homo sapiens) (UniProt Q05655)", "sequence (Q05655 whole entry, looked up)": "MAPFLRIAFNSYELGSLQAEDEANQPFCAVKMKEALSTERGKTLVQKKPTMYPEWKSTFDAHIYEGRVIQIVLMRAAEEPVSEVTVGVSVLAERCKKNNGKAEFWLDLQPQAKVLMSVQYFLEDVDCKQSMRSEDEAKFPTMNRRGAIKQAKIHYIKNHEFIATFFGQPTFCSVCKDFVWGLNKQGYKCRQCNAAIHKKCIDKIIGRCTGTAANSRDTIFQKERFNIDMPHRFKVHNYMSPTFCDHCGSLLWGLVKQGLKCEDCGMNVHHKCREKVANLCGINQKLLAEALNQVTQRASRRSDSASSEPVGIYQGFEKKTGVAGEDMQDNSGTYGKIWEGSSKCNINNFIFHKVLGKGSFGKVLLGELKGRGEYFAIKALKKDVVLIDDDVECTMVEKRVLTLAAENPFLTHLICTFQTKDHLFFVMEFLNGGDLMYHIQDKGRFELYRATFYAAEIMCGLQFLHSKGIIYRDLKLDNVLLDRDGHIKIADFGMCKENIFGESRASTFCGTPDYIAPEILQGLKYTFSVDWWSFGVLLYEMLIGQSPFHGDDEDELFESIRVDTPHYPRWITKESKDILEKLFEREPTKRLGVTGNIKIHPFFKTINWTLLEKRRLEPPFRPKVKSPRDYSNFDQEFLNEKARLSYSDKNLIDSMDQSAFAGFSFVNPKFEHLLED", "assay": "Inhibition of recombinant human full length GST-tagged PRKCD expressed in baculovirus expression system at 2 uM using Ser/Thr 07 as substrate measured after 1 hr by Z'-LYTE assay relative to control"}, "MDA-MB-361": {"system": "MDA-MB-361", "assay": "Induction of apoptosis in PI3K/mTOR hyperactive human MDA-MB-361 cells assessed as cell death at 0.001 to 100 micromol/L incubated for 24 hrs by FACS analysis", "format": "functional, cell-based", "settings": "dose 0.001-100 µmol/L"}, "[9]": {"biological_target": "Protein-tyrosine kinase 6 (Homo sapiens) (UniProt Q13882)", "assay": "Inhibition of recombinant human full length His-tagged PTK6 expressed in baculovirus expression system at 2 uM using […] as substrate measured after 1 hr by Z'-LYTE assay relative to control"}, "NCI-H157": {"system": "NCI-H157", "assay": "Antiproliferative activity against human NCI-H157 cells assessed as cell growth inhibition incubated for 24 hrs by MTS assay", "format": "functional, cell-based", "settings": "NCI-H157, 24 h"}, "[10]": {"biological_target": "Mitogen-activated protein kinase kinase kinase kinase 2 (Homo sapiens) (UniProt Q12851)", "sequence (Q12851 whole entry)": "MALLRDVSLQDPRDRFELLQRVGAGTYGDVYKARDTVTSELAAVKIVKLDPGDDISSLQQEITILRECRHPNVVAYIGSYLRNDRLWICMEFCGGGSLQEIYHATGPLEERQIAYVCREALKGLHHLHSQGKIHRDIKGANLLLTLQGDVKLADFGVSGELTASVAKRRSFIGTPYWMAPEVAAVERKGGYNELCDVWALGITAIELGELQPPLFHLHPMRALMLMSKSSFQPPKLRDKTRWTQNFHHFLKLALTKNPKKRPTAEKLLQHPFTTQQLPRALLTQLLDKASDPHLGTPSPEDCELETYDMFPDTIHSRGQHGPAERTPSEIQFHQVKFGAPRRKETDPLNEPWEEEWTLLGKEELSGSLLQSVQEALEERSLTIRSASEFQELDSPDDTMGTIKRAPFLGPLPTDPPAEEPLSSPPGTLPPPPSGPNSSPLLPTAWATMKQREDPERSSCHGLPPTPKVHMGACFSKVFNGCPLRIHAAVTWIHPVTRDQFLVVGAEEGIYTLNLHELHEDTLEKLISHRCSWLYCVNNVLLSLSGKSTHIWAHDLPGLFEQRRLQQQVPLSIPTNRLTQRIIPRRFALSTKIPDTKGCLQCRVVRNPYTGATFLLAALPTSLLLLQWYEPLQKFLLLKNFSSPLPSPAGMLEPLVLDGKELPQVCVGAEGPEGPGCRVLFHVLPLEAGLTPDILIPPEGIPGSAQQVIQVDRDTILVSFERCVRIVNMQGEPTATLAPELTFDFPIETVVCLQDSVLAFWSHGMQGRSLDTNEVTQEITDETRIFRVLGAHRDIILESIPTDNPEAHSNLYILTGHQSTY", "assay": "Inhibition of recombinant human full-length His-tagged MAP4K2 expressed in insect cells at 2 uM using Ser/Thr 07 as substrate measured after 1 hr by Z'-LYTE assay relative to control", "settings": "Insect cell"}, "[11]": {"biological_target": "Phosphorylase b kinase gamma catalytic chain, skeletal muscle/heart isoform (Homo sapiens) (UniProt Q16816)", "assay": "Inhibition of recombinant human full length GST-tagged PHKG1 expressed in insect cells at 2 uM using Ser/Thr 07 as substrate measured after 1 hr by Z'-LYTE assay relative to control", "settings": "Insect cell"}, "[12]": {"biological_target": "Aurora kinase C (Homo sapiens) (UniProt Q9UQB9)", "assay": "Inhibition of recombinant human full-length GST-tagged AURKC expressed in insect cells at 2 uM using Ser/Thr 19 as substrate measured after 1 hr by Z'-LYTE assay relative to control", "settings": "Insect cell"}, "[13]": {"biological_target": "Ribosomal protein S6 kinase alpha-5 (Homo sapiens) (UniProt O75582)", "assay": "Inhibition of recombinant human full length GST-tagged RPS6KA5 expressed in insect cells at 2 uM using Ser/Thr 01 as substrate measured after 1 hr by Z'-LYTE assay relative to control", "settings": "Insect cell"}, "PC3MM2": {"system": "PC3MM2", "assay": "Antitumor activity against human PC3MM2 cells xenografted in female nude mouse model assessed as suppression in P-AKT at S473 level at 50 mg/kg, iv administered once a week and measured at least 8 hrs by immunoblot analysis", "format": "functional, organism-based"}, "[14]": {"biological_target": "Mast/stem cell growth factor receptor Kit (Homo sapiens) (UniProt P10721)", "assay": "Inhibition of recombinant human His-tagged KIT (544-976 residues) expressed in insect cells at 2 uM using […] as substrate measured after 1 hr by Z'-LYTE assay relative to control"}, "[15]": {"biological_target": "Phosphorylase b kinase gamma catalytic chain, liver/testis isoform (Homo sapiens) (UniProt P15735)", "assay": "Inhibition of recombinant human full length GST-tagged PHKG2 expressed in insect cells at 2 uM using Ser/Thr 07 as substrate measured after 1 hr by Z'-LYTE assay relative to control", "settings": "Insect cell"}, "[16]": {"system": "Platelet-derived growth factor receptor alpha (Homo sapiens), P16234 [V561D]", "assay": "Inhibition of recombinant human GST-tagged PDGFRA V561D mutant (550-1089 residues) expressed in insect cells at 2 uM using Tyr 04 as substrate measured after 1 hr by Z'-LYTE assay relative to control", "settings": "Insect cell"}, "[17]": {"biological_target": "Tyrosine-protein kinase SYK (Homo sapiens) (UniProt P43405)", "assay": "Inhibition of recombinant human full length GST-tagged SYK expressed in baculovirus expression system at 2 uM using […] as substrate measured after 1 hr by Z'-LYTE assay relative to control"}, "A498": {"system": "A498", "assay": "Antiproliferative activity against human A498 cells assessed as cell growth inhibition incubated for 24 hrs by MTS assay", "format": "functional, cell-based", "settings": "A498, 24 h"}, "[18]": {"biological_target": "Serine/threonine-protein kinase D2 (Homo sapiens) (UniProt Q9BZL6)", "assay": "Inhibition of recombinant human full length GST-tagged PRKD2 expressed in insect cells at 2 uM using Ser/Thr 17 as substrate measured after 1 hr by Z'-LYTE assay relative to control", "settings": "Insect cell"}, "[19]": {"biological_target": "Macrophage colony-stimulating factor 1 receptor (Homo sapiens) (UniProt P07333)", "sequence (P07333 whole entry, the tested form may be a part)": "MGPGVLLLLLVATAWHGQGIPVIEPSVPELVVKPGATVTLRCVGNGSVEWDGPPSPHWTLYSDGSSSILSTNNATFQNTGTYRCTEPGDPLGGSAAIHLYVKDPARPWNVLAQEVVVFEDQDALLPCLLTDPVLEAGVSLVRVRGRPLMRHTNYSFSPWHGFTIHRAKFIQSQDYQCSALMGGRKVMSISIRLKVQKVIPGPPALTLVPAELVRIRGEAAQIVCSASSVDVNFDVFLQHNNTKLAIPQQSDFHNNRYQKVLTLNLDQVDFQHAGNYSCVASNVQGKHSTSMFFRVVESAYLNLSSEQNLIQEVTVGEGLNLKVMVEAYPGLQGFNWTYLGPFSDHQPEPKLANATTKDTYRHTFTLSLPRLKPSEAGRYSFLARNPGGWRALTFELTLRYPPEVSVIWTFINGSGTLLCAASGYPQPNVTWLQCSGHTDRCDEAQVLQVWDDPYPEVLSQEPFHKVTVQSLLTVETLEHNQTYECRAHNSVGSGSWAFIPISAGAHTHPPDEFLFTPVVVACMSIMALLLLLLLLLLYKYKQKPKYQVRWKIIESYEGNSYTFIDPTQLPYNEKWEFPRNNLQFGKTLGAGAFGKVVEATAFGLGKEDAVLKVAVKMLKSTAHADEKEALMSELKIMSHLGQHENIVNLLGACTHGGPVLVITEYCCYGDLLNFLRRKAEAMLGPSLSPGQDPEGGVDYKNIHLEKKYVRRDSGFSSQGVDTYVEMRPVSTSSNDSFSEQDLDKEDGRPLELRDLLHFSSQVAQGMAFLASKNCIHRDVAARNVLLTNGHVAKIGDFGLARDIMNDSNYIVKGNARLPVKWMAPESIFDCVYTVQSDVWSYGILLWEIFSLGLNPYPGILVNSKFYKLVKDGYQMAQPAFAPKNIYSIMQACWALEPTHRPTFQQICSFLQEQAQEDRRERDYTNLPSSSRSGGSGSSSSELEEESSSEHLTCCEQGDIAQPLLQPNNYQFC", "assay": "Inhibition of recombinant human His-tagged CSF1R (538-910 residues) expressed in baculovirus expression system at 2 uM using Tyr 01 as substrate measured after 1 hr by Z'-LYTE assay relative to control"}},
  "note": "Calls of active or inactive are those of the source. No cut-off for these calls is given here.",
  "data": [
    {"smiles": "CNC(=O)Nc1ccc(-c2nc(N3CC4CCC(C3)O4)c3cnn(C4CCC5(CC4)OCCO5)c3n2)cc1", "values": [
      {"measurement": "inhibition", "setting": "[1]", "value": 7, "unit": "%"},
      {"measurement": "inhibition", "setting": "Rat1", "value": "Active"},
      {"measurement": "inhibition", "setting": "[2]", "value": 6, "unit": "%"},
      {"measurement": "Activity", "setting": "A549", "value": "Active"},
      {"measurement": "inhibition", "setting": "[3]", "value": 0, "unit": "%"},
      {"measurement": "inhibition", "setting": "[4]", "value": -1, "unit": "%"},
      {"measurement": "inhibition", "setting": "[5]", "value": 1, "unit": "%"},
      {"measurement": "inhibition", "setting": "[6]", "value": 4, "unit": "%"},
      {"measurement": "inhibition", "setting": "[7]", "value": 12, "unit": "%"},
      {"measurement": "inhibition", "setting": "[8]", "value": 16, "unit": "%"},
      {"measurement": "Activity", "setting": "MDA-MB-361", "value": "Active"},
      {"measurement": "inhibition", "setting": "[9]", "value": 8, "unit": "%"},
      {"measurement": "IC50", "setting": "NCI-H157", "value": 0.145, "unit": "µM"},
      {"measurement": "inhibition", "setting": "[10]", "value": 3, "unit": "%"},
      {"measurement": "inhibition", "setting": "[11]", "value": 7, "unit": "%"},
      {"measurement": "inhibition", "setting": "[12]", "value": 4, "unit": "%"},
      {"measurement": "inhibition", "setting": "[13]", "value": 1, "unit": "%"},
      {"measurement": "Activity", "setting": "PC3MM2", "value": "Active"},
      {"measurement": "inhibition", "setting": "[14]", "value": 10, "unit": "%"},
      {"measurement": "inhibition", "setting": "[15]", "value": 12, "unit": "%"},
      {"measurement": "inhibition", "setting": "[16]", "value": 3, "unit": "%"},
      {"measurement": "inhibition", "setting": "[17]", "value": 1, "unit": "%"},
      {"measurement": "IC50", "setting": "A498", "value": 0.11, "unit": "µM"},
      {"measurement": "inhibition", "setting": "[18]", "value": 1, "unit": "%"},
      {"measurement": "inhibition", "setting": "[19]", "value": 7, "unit": "%"}
    ]}
  ]
}
